Test results reported in ChEMBL document CHEMBL1201862, “PubChem BioAssay data set” (2004).
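Exposure lasted 48 hours, with cells grown in 96-well plates and compounds tested at five concentrations. The concentration for 50% growth inhibition is given as GI50.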 Active and inactive are the calls of the source. Rule as the data show it: active = GI50 up to about 1.1 µM and inactive = higher.

Experiments:
Test in all cases: inhibition of tumour cell growth, NCI panel, 48 h
MOLT-4 = system: MOLT-4
HL-60 = system: HL-60
TK-10 = system: TK-10
NCI-H522 = system: NCI-H522
CAKI-1 = system: CAKI-1
LOX IMVI = system: LOX IMVI
RXF 393 = system: RXF 393
ACHN = system: ACHN
HCT-15 = system: HCT-15
COLO 205 = system: COLO 205
KM12 = system: KM12
SF-539 = system: SF-539
SF-268 = system: SF-268
SK-OV-3 = system: SK-OV-3
OVCAR-3 = system: OVCAR-3
UACC-257 = system: UACC-257
SR = system: SR
OVCAR-5 = system: OVCAR-5

Row | Compound | GI50 (MOLT-4) | GI50 (HL-60) | GI50 (TK-10) | GI50 (NCI-H522) | GI50 (CAKI-1) | GI50 (LOX IMVI) | GI50 (RXF 393) | GI50 (ACHN) | GI50 (HCT-15) [µM] | GI50 (COLO 205) | GI50 (KM12) | GI50 (SF-539) | GI50 (SF-268) | GI50 (SK-OV-3) | GI50 (OVCAR-3) | GI50 (UACC-257) | GI50 (SR) | GI50 (OVCAR-5)
1 | COC(=O)C(/C(=N\O)C(=O)Nc1ccc(Br)cc1)c1nc2ccccc2nc1O (stereo not given) | 26.1 µM (inactive) | 21.8 µM (inactive) | > 10 µM (inactive) | 17.1 µM (inactive) | > 100 µM (inactive) | 22.7 µM (inactive) | 36.7 µM (inactive) | 49.2 µM (inactive) | 64.7 | 18.5 µM (inactive) | > 100 µM (inactive) | 24.4 µM (inactive) | 39.2 µM (inactive) | > 100 µM (inactive) | 23.1 µM (inactive) | > 100 µM (inactive) | 18.2 µM (inactive) | > 100 µM (inactive)
2 | COc1ccc(NC(=O)c2cc(OC)c(OC)c(OC)c2)cc1 | 34.3 µM (inactive) | 22.2 µM (inactive) | > 100 µM (inactive) | 30.2 µM (inactive) | 66.4 µM (inactive) | 60.3 µM (inactive) | 31.3 µM (inactive) | 83.8 µM (inactive) | 33.4 | 26.5 µM (inactive) | 22.8 µM (inactive) | 48 µM (inactive) | > 56.4 µM (inactive) | 49.8 µM (inactive) | 39.1 µM (inactive) | 42.8 µM (inactive) |  | > 100 µM (inactive)
3 | COc1ccc(CNC2=C(NC(C)=O)C(=O)c3ccccc3C2=O)cc1 | 3.71 µM (inactive) | 1.69 µM (inactive) | 10.6 µM (inactive) | 1.37 µM (inactive) |  | 8.51 µM (inactive) | 6.41 µM (inactive) | 2.07 µM (inactive) | 13.1 | 9.44 µM (inactive) | 23 µM (inactive) | 7.43 µM (inactive) | 18.9 µM (inactive) | 19.5 µM (inactive) | 8.07 µM (inactive) | 8.77 µM (inactive) | 14 µM (inactive) | 
4 | O=[N+]([O-])C(/C=N/Nc1ccccc1)/C=N/Nc1ccccc1 | > 100 µM (inactive) | > 100 µM (inactive) | > 100 µM (inactive) | > 100 µM (inactive) | > 100 µM (inactive) | > 100 µM (inactive) | > 100 µM (inactive) | > 100 µM (inactive) | > 100 | > 100 µM (inactive) | > 100 µM (inactive) | > 100 µM (inactive) | > 100 µM (inactive) | > 100 µM (inactive) | > 100 µM (inactive) | > 100 µM (inactive) |  | > 100 µM (inactive)
5 | CN(N=O)C(=O)N(N)CCCCC(NC(=O)OCc1ccccc1)C(=O)OCc1ccccc1 (stereo not given) | 18.9 µM (inactive) | 5.25 µM (inactive) | > 100 µM (inactive) | 11.7 µM (inactive) | 25.6 µM (inactive) | 17.9 µM (inactive) | 12.9 µM (inactive) | 19 µM (inactive) | 90.4 | 18.5 µM (inactive) | 38.8 µM (inactive) | 16 µM (inactive) |  | > 100 µM (inactive) | 23.1 µM (inactive) | 18.7 µM (inactive) |  | > 100 µM (inactive)
6 | CC1=C(C(=O)NCc2ccccc2)C(c2ccccc2O)C(C(=O)NCc2ccccc2)=C(C)N1 | 31.3 µM (inactive) | 17.3 µM (inactive) | 17.9 µM (inactive) | 16.5 µM (inactive) | 18.3 µM (inactive) | 14.5 µM (inactive) | 17.9 µM (inactive) | 16.4 µM (inactive) | 13.6 | 16.9 µM (inactive) | 16.6 µM (inactive) | 18.4 µM (inactive) | 22.9 µM (inactive) | 26.1 µM (inactive) | 17.4 µM (inactive) | 16.1 µM (inactive) | 28.9 µM (inactive) | 18.9 µM (inactive)
7 | COc1ccc2n[se]nc2c1 | > 100 µM (inactive) | > 100 µM (inactive) | 70.6 µM (inactive) | > 100 µM (inactive) | > 100 µM (inactive) | > 100 µM (inactive) | 48.4 µM (inactive) | > 100 µM (inactive) | > 100 | > 100 µM (inactive) | 56.4 µM (inactive) | 23.1 µM (inactive) | > 100 µM (inactive) | 46.3 µM (inactive) |  | 54.6 µM (inactive) |  | > 100 µM (inactive)
8 | N#CCN1CCOCCOCCN(CC#N)CCOCCOCC1 | > 100 µM (inactive) | > 100 µM (inactive) | > 100 µM (inactive) |  | > 100 µM (inactive) | > 100 µM (inactive) | > 100 µM (inactive) | > 100 µM (inactive) | > 100 | > 100 µM (inactive) |  | > 100 µM (inactive) | > 100 µM (inactive) |  | > 100 µM (inactive) | > 100 µM (inactive) | > 100 µM (inactive) | > 100 µM (inactive)
9 | C#CC1/C(=C\C(=O)OC)CCCC1O (stereo not given) | > 100 µM (inactive) | > 100 µM (inactive) | > 100 µM (inactive) | > 100 µM (inactive) | > 100 µM (inactive) |  | > 100 µM (inactive) | > 100 µM (inactive) | > 100 | > 100 µM (inactive) | > 100 µM (inactive) | > 100 µM (inactive) | > 100 µM (inactive) | > 100 µM (inactive) | > 100 µM (inactive) | > 100 µM (inactive) | > 100 µM (inactive) | > 100 µM (inactive)
10 | CCC(=O)C12OC3OC(C)(C)OC3C1OC(C)(C)O2 (stereo not given) | > 100 µM (inactive) | > 100 µM (inactive) | > 100 µM (inactive) | > 100 µM (inactive) | > 100 µM (inactive) |  | > 100 µM (inactive) | > 100 µM (inactive) |  |  | > 100 µM (inactive) | > 100 µM (inactive) | > 100 µM (inactive) | > 100 µM (inactive) | > 100 µM (inactive) | > 100 µM (inactive) | > 100 µM (inactive) | > 100 µM (inactive)
11 | COc1ccc(/C=C2\CCC(C)(CN(C)C)C2=O)cc1OC (stereo not given) | > 100 µM (inactive) |  | > 100 µM (inactive) | > 100 µM (inactive) | > 100 µM (inactive) | > 100 µM (inactive) | > 100 µM (inactive) | > 100 µM (inactive) | > 100 | > 100 µM (inactive) | > 100 µM (inactive) | > 100 µM (inactive) | > 100 µM (inactive) |  | > 100 µM (inactive) | > 100 µM (inactive) |  | > 100 µM (inactive)
12 | O=C(CSc1nnc(Cc2ccccc2)o1)Nc1ccc(Cl)cc1 | > 100 µM (inactive) | > 100 µM (inactive) | > 100 µM (inactive) | 75.3 µM (inactive) | 59.2 µM (inactive) | > 100 µM (inactive) | > 100 µM (inactive) | 75.9 µM (inactive) | > 100 | > 100 µM (inactive) | > 100 µM (inactive) | > 100 µM (inactive) |  | > 100 µM (inactive) | 68.2 µM (inactive) | > 100 µM (inactive) |  | 70.3 µM (inactive)
13 | OC(c1ccccc1)(c1ccccc1)c1cccnc1 |  |  | > 100 µM (inactive) |  | > 100 µM (inactive) | > 100 µM (inactive) |  | > 100 µM (inactive) | > 100 | > 100 µM (inactive) | > 100 µM (inactive) | > 100 µM (inactive) | > 100 µM (inactive) | > 100 µM (inactive) | > 100 µM (inactive) | > 100 µM (inactive) |  | > 100 µM (inactive)
14 | CC(=O)Oc1cc2c(cc1OC(C)=O)C1(C)CCC2(C)c2cc(OC(C)=O)c(OC(C)=O)cc21 | 8.2 µM (inactive) | 4.13 µM (inactive) | 26.5 µM (inactive) | 2.24 µM (inactive) | 8.55 µM (inactive) | 12.6 µM (inactive) | 40.7 µM (inactive) | 26.1 µM (inactive) | 6.92 | 51.4 µM (inactive) | 11.6 µM (inactive) |  | 19.2 µM (inactive) | 29.2 µM (inactive) | 10.2 µM (inactive) | 11.3 µM (inactive) |  | 28.4 µM (inactive)
15 | COc1cc2c(cc1OC)c1c(OC)c(OC)cc3c1c1c2sc(=S)n1CC3 | 30.7 µM (inactive) | 26.9 µM (inactive) | > 100 µM (inactive) | 17.4 µM (inactive) | > 100 µM (inactive) | 31.5 µM (inactive) | 89.1 µM (inactive) | > 100 µM (inactive) | 42.3 | > 100 µM (inactive) | 55.8 µM (inactive) | 48.3 µM (inactive) | 28.7 µM (inactive) | > 100 µM (inactive) | 55.5 µM (inactive) | > 100 µM (inactive) |  | > 100 µM (inactive)
16 | COc1ccc(C2C(Cl)C(=O)N2n2cnc3ccccc3c2=O)cc1OC (stereo not given) | 82.4 µM (inactive) | 57.7 µM (inactive) | > 100 µM (inactive) | 57.9 µM (inactive) | > 100 µM (inactive) | > 100 µM (inactive) | 96.8 µM (inactive) | > 100 µM (inactive) | > 100 | > 100 µM (inactive) | > 100 µM (inactive) |  | 85.7 µM (inactive) | 76.4 µM (inactive) | 44.6 µM (inactive) | 32 µM (inactive) | 38.7 µM (inactive) | > 100 µM (inactive)
17 | C[P+](C)(CC(F)(F)F)c1ccccc1 | > 100 µM (inactive) | > 100 µM (inactive) | > 100 µM (inactive) | > 100 µM (inactive) |  | > 100 µM (inactive) | > 100 µM (inactive) | > 100 µM (inactive) | > 100 | > 100 µM (inactive) | > 100 µM (inactive) | > 100 µM (inactive) |  | > 100 µM (inactive) | > 100 µM (inactive) | > 100 µM (inactive) | > 100 µM (inactive) | > 100 µM (inactive)
